Assay results: ChEMBL document CHEMBL1201862, “PubChem BioAssay data set” (2004)
Active and inactive are the calls of the source.

Tests used:
[1] = HEK-293T cell viability reduction – luminescence, B-cell screen hits, cytotoxicity control for BCR NF-kB inhibitor project, dose response (AID 489021); type: functional, cell-based;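 note: HEK-293T cells carrying an NF-kB luciferase reporter; cells exposed to compound for about 14 hours before viability readout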
Genome polyprotein = Genome polyprotein (dengue virus type 2, UniProt P29990); assay: flavivirus cap methylation enzyme inhibition – biochemical, confirmation dose response, primary screen (AID 588689); type: functional
Caspase-6 = target: T1, Caspase-6 (Homo sapiens, UniProt P55212); assay: inhibition of CASP6 peptide cleavage – biochemical, VEID-R110 fluorescence, cherry-pick, dose response (AID 720632)
T1 sequence (P55212 whole entry): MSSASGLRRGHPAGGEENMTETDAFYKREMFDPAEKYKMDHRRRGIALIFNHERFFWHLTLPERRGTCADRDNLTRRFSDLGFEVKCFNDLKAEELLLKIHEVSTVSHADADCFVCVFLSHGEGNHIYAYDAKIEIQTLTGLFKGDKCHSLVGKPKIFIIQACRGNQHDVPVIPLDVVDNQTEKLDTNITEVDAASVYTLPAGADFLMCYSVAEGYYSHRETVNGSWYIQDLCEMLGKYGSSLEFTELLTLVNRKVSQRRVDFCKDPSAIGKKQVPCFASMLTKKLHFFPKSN

cells [2] = type: functional, cell-based
cells [3] = type: functional, cell-based; remark: listed apart in the source
[4] = target: T2, RNA-binding protein pos-1 (Caenorhabditis elegans, UniProt G5EF15); assay: disruptors of C. elegans POS-1 RNA interaction – biochemical, fluorescence polarization, dose response (AID 1964);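 note: purified POS-1 fused to maltose binding protein made in E. coli; potency of compounds blocking POS-1 binding to fluorescent RNA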
T2 sequence (G5EF15 whole entry): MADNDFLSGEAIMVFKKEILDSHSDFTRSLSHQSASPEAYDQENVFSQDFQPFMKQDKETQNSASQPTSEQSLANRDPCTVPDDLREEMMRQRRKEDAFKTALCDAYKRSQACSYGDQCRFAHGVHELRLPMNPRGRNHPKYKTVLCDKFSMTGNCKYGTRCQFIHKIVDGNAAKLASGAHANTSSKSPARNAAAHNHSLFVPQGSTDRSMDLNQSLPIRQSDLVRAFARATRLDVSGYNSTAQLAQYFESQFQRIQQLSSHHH

[5] = target: T3, Zinc finger protein mex-5 (Caenorhabditis elegans, UniProt Q9XUB2); assay: potency of MEX-5 RNA-binding blockers – biochemical, C. elegans, fluorescence polarization, dose response (AID 1960)
T3 sequence (Q9XUB2 whole entry): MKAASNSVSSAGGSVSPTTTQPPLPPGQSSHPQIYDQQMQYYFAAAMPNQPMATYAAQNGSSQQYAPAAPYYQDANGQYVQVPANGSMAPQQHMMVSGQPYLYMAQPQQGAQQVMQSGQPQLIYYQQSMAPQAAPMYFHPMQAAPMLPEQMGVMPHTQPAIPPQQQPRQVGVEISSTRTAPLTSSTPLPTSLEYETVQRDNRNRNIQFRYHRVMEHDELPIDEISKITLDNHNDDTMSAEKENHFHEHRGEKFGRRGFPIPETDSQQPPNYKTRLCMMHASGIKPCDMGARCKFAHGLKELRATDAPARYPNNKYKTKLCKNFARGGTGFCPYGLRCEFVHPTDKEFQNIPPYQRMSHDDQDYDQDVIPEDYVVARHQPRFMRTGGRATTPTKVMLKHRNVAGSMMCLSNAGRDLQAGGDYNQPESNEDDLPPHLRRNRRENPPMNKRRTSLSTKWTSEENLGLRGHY

[6] = target: T4, Mannose-6-phosphate isomerase (Homo sapiens, UniProt P34949); assay: MPI inhibition at elevated mannose 6-phosphate – biochemical, fluorescence intensity, high mannose 6-phosphate, primary screen (AID 1220)
T4 sequence (P34949 whole entry): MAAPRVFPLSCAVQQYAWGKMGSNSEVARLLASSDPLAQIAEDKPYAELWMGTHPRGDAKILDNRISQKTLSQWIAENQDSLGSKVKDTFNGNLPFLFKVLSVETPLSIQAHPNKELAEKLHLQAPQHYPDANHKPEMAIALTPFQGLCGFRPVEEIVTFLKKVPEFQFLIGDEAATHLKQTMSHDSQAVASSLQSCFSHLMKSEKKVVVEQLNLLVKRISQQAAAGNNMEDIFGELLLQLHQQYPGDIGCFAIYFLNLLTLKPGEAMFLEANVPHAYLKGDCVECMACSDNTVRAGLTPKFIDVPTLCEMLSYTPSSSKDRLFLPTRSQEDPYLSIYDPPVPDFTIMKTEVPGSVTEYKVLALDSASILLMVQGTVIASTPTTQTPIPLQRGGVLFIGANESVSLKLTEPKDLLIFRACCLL

[7] = target: T5, Carboxy-terminal domain RNA polymerase II polypeptide A small phosphatase 1 (Homo sapiens, UniProt Q9GZU7); assay: CTDSP1 inhibitors, concentration-response, biochemical, absorbance readout, ultra-high-throughput screen actives (AID 540297); type: functional
T5 sequence (Q9GZU7 whole entry): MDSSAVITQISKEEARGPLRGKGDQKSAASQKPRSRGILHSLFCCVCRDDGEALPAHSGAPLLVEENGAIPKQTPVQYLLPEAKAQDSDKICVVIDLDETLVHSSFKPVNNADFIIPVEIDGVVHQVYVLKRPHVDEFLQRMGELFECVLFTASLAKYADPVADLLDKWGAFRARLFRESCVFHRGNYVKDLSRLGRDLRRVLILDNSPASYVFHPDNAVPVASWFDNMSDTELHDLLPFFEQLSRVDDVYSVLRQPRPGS

Large T antigen = Large T antigen (Simian virus 40, UniProt P03070); type: functional, Betapolyomavirus macacae;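 note: Confirmatory-stage PubChem screen for compounds that inhibit SV40 T antigen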
cells [8] = type: functional
Cytochrome P450 2C9 = Cytochrome P450 2C9 (Homo sapiens, UniProt P11712)
[9] = target: T6, Corticotropin-releasing factor receptor 2/Corticotropin-releasing factor-binding protein (Homo sapiens, UniProt P24387+Q13324); assay: activators of CRF receptor 2 with binding protein – uHTS hits, confirmation (AID 602473); type: functional; details: read-out: EC50_Mean
T6 sequence (Q13324 whole entry): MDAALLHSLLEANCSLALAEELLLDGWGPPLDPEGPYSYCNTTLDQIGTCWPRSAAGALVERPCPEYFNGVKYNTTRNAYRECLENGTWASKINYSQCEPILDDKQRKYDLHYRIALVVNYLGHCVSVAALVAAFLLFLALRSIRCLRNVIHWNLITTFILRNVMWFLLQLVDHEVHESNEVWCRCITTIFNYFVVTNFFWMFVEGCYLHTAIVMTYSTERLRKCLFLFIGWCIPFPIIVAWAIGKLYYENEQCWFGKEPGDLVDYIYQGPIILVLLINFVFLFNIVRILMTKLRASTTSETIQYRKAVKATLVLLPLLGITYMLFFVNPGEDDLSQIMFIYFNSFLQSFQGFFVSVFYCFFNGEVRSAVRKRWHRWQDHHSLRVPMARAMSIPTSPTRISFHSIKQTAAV
T6 sequence (P24387 whole entry): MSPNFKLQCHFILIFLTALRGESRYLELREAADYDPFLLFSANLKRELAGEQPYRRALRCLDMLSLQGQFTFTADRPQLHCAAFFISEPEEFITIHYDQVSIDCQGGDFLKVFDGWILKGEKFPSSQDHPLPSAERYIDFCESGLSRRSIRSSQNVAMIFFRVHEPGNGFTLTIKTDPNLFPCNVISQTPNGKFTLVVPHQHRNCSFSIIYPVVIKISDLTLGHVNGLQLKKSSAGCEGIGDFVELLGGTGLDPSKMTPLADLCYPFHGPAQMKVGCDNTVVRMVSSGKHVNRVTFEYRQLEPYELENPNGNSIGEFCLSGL

[10] = target: T6, Corticotropin-releasing factor receptor 2/Corticotropin-releasing factor-binding protein; assay: Dose Response confirmation of uHTS hits for small molecule antagonists of the CRF-binding protein and CRF-R2 receptor complex.; type: functional; details: read-out: IC50_Mean
[11] = blockers of CRF-binding protein–CRF-R2 complex – cell-based, uHTS hits, 384-well, dose response (AID 651639); type: functional, Homo sapiens; details: read-out: IC50_Mean
cells [12] = type: functional, cell-based; remark: listed apart in the source
cells [13] = type: functional, cell-based; remark: listed apart in the source
[14] = target: T7, Apoptotic protease-activating factor 1 (Homo sapiens, UniProt O14727); type: functional
T7 sequence (O14727 whole entry): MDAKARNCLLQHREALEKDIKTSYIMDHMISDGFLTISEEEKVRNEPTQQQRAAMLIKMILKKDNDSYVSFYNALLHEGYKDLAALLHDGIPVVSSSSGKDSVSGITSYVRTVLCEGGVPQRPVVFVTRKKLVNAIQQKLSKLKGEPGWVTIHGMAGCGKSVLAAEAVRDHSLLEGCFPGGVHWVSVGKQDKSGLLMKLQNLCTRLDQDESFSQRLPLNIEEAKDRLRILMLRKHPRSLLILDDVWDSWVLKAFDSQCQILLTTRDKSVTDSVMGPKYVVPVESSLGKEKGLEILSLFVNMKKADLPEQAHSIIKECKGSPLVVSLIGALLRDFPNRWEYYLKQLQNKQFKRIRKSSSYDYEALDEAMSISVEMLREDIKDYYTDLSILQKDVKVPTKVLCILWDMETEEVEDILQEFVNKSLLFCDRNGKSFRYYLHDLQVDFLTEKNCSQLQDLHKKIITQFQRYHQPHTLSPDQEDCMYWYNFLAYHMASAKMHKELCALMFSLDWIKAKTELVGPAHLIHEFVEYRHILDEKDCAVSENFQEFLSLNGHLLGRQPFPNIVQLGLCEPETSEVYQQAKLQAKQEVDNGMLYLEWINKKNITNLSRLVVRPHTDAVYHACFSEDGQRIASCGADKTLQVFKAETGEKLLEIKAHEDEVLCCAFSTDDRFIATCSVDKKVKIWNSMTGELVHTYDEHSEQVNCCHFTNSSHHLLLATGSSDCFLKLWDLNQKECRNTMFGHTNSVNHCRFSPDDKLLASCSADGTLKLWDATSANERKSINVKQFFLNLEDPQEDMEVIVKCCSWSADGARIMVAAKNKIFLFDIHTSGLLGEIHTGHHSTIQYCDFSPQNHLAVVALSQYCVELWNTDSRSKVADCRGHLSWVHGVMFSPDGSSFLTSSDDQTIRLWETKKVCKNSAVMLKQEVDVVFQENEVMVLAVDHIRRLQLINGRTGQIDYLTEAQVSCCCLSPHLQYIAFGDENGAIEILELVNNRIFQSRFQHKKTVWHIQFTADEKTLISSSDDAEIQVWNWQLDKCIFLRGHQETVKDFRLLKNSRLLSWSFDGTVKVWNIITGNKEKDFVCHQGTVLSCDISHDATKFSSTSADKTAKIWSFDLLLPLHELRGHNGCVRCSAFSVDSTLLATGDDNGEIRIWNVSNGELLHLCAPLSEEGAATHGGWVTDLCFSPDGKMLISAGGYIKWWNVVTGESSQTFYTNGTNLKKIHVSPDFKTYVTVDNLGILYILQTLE

Chain of Cytochrome P450 2C9 (P11712 whole entry): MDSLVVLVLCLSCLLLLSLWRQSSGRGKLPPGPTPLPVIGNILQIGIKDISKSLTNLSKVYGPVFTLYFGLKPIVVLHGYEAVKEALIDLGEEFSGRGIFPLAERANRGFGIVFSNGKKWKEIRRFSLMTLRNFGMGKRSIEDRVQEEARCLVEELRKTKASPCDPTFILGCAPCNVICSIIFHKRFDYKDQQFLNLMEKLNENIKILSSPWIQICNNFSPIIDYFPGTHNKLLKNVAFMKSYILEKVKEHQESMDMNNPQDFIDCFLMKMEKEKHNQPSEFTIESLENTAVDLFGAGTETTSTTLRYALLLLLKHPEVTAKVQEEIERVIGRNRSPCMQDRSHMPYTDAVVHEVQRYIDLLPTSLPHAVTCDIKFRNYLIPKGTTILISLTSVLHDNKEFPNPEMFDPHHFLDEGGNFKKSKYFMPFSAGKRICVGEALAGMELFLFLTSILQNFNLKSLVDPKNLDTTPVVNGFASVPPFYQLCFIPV
Chain of Genome polyprotein (P29990 2492-3391 limits assumed): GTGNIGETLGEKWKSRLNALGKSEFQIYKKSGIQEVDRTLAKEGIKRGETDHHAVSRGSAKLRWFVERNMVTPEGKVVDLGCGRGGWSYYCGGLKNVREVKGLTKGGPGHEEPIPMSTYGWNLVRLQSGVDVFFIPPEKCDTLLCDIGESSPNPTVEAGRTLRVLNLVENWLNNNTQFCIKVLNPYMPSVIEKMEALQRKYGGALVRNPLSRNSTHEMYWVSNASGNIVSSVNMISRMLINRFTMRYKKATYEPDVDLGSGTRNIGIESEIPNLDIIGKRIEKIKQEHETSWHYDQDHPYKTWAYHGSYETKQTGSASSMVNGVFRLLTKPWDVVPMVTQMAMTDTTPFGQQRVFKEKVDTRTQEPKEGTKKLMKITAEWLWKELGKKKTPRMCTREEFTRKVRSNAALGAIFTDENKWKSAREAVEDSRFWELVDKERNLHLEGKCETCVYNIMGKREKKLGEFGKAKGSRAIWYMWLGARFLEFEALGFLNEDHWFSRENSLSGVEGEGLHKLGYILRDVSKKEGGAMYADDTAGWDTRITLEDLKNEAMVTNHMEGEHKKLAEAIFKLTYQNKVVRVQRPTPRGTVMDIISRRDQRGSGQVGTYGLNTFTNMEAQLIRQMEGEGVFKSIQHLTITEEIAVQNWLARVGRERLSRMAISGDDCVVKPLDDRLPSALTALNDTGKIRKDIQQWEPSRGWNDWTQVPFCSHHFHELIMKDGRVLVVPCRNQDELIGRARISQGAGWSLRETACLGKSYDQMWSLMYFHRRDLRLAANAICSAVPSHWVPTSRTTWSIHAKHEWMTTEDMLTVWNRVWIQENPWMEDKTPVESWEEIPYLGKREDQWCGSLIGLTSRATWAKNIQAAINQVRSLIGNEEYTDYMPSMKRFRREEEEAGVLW
Chain of Large T antigen (P03070 whole entry): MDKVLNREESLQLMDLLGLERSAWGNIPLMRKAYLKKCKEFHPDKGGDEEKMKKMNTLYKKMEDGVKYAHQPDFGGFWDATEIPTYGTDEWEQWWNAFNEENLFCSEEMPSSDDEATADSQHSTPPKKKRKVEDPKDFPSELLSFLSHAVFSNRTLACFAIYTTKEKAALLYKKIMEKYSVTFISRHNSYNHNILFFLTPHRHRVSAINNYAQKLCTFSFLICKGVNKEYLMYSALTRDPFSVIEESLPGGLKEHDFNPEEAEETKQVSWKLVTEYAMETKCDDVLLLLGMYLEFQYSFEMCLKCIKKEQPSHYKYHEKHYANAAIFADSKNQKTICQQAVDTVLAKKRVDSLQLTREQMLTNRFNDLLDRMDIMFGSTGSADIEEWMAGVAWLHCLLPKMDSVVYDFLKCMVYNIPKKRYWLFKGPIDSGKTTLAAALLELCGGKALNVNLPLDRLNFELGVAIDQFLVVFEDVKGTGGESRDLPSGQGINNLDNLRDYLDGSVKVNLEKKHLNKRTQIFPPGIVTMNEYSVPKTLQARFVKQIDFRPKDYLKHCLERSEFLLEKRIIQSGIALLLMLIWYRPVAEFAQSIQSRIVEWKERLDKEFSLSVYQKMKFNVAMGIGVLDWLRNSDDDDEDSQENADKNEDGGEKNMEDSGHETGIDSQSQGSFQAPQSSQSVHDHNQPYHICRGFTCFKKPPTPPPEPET

CN1C(=O)CSc2ccc(NC(=O)N3CCN(c4ccccc4)CC3)cc21
IC50 [1]: > 80 µM (inactive)

Cc1ccc(CSc2nnc3c(n2)OC2(Nc4ccccc4-3)C(=O)Nc3ccc(F)cc32)cc1 (stereo unspecified)
IC50 (Genome polyprotein): 25 µM (active)

C[C@H](O)[C@@H]1C(=O)N2CCc3c([nH]c4ccccc34)[C@@H]2C[C@@H]1N(C)C(=O)Nc1cccc2ccccc12
AC50 (Caspase-6): 35.9 µM (active)

CC(=C1C(=O)c2ccccc2C1=O)N1CCc2ccccc2C1
EC50 (cells [2]): > 29.9 µM (inactive) | IC50 (cells [3]): > 29.9 µM (inactive)

O=C(Nc1ccccc1F)c1coc(=O)c(Br)c1
EC50 [4]: > 300 µM (not active) | AC50 (Caspase-6): 23.8 µM (active) | EC50 [5]: > 300 µM (not active)

O=C(CSc1ccc(-c2ccccn2)nn1)c1ccc(F)cc1
IC50 [6]: > 50 µM (not active)

CCCCNS(=O)(=O)c1cc(-c2nn(C)c(=O)c3ccccc23)ccc1C
AC50 (Caspase-6): 21.3 µM (active)

N=C1/C(=C/c2ccc(Br)o2)C(=O)N=C2SC(CC(=O)N3CCCC3)=NN12
IC50 [7]: > 80 µM (inactive) | IC50 (Large T antigen): 58.3 µM (active)

C/C(=N\Nc1ccc(Cl)c(C(=O)O)c1)c1ccc[nH]1
EC50 [4]: > 300 µM (not active) | IC50 [7]: 4.28 µM (active) | EC50 [5]: > 150 µM (not active)

Cc1ccc2c(c1)c1c3n2CCN=C3CCC1
IC50 (cells [8]): 11.9 µM (active)

CCN(CC(=O)NCc1cccs1)S(=O)(=O)c1ccc(C(C)C)cc1
AC50 (Cytochrome P450 2C9): inconclusive

Cc1nc2c(C(=O)NCCc3ccccc3)cnn2c(O)c1Cl
IC50 [6]: > 50 µM (not active) | EC50 [9]: > 53 µM (inactive) | IC50 [10]: 44.5 µM (active) | IC50 [11]: > 20 µM (inactive)

CC1CCN(S(=O)(=O)c2ccc3c4c2CC(=O)N4CC(C)S3)CC1 (stereo unspecified)
EC50 (cells [12]): > 350 µM (not active) | EC50 (cells [13]): > 350 µM (not active) | IC50 [14]: 3.64 µM (active)

Oc1ccc(/C=N/CC2COc3ccccc3O2)cc1 (stereo unspecified)
EC50 (cells [2]): > 29.9 µM (inactive) | IC50 (cells [3]): > 29.9 µM (inactive)

O=C(COc1ccc(F)cc1)NNC(=O)c1cc2ccccc2oc1=O
EC50 (cells [2]): > 29.9 µM (inactive) | IC50 (cells [3]): > 29.9 µM (inactive)

O=C(OCn1nnc2ccccc2c1=O)c1ccc(N2CCOCC2)c([N+](=O)[O-])c1
IC50 (cells [8]): 10 µM (active)

COc1c(NC(C)=O)c2ccccc2c2ccccc12
AC50 (Cytochrome P450 2C9): inconclusive

CC(=O)c1ccc(NC(=O)c2cc(CC(C)C)on2)cc1
IC50 (cells [8]): 12 µM (active)
